# Measured values reported in patent publication US11345708B2, “Substituted imidazo[1,2-a]imidazoles as modulators of metabotropic glutamate receptor 4 activity” (Hoffmann-La Roche Inc., priority 2017, dated 2022).
# Biological target: T1, human mGlu4 receptor (Homo sapiens, UniProt Q14833)
# T1 construct: expressed in transfected cells; host or cells: HEK-293 (monoclonal, stably transfected)
# Test: Ca2+ mobilization in vitro assay on recombinant human mGlu4 expressed in HEK293 cells
# Assay type: cell-based
# Conditions: HEK-293 cells stably expressing human mGlu4; L-AP4 added at EC20; Fluo-4 fluorescence; read-out: EC50 (uM) mGlu4 PAM
# Procedure: Determination of EC50 Values Using a Ca2+ Mobilization In Vitro Assay on Recombinant Human mGlu4 Expressed in HEK293 Cells:
# A monoclonal HEK-293 cell line stably transfected with a cDNA encoding for the human mGlu4 receptor was generated; for the work with mGlu4 Positive Allosteric Modulators (PAMs), a cell line with low receptor expression levels and low constitutive receptor activity was selected to allow the differentiation of agonistic versus PAM activity. Cells were cultured according to standard protocols (Freshney, 2000) in Dulbecco's Modified Eagle Medium with high glucose supplemented with 1 mM glutamine, 10% (vol/vol) heat-inactivated bovine calf serum, Penicillin/Streptomycin, 50 μg/ml hygromycin and 15 μg/ml blasticidin (all cell culture reagents and antibiotics from Invitrogen, Basel, Switzerland).
# About 24 hrs before an experiment, 5×10^4 cells/well were seeded in poly-D-lysine coated, black/clear-bottomed 96-well plates. The cells were loaded with 2.5 μM Fluo-4 AM in loading buffer (1×HBSS, 20 mM HEPES) for 1 hr at 37° C. and washed five times with loading buffer. The cells were transferred into a Functional Drug Screening System 7000 (Hamamatsu, Paris, France), and 11 half logarithmic serial dilutions of test compound at 37° C. were added and the cells were incubated for 10-30 min. with on-line recording of fluorescence. Following this pre-incubation step, the agonist (2S)-2-amino-4-phosphonobutanoic acid (L-AP4) was added to the cells at a concentration corresponding to EC20 with on-line recording of fluorescence; in order to account for day-to-day variations in the responsiveness of cells, the EC20 of L-AP4 was determined immediately ahead of each experiment by recording of a full dose-response curve of L-AP4.
# Responses were measured as peak increase in fluorescence minus basal (i.e. fluorescence without addition of L-AP4), normalized to the maximal stimulatory effect obtained with saturating concentrations of L-AP4. Graphs were plotted with the % maximal stimulatory using XLfit, a curve fitting program that iteratively plots the data using Levenburg Marquardt algorithm. The single site competition analysis equation used was y=A+((B−A)/(1+((x/C)D))), where y is the % maximal stimulatory effect, A is the minimum y, B is the maximum y, C is the EC50, x is the log 10 of the concentration of the competing compound and D is the slope of the curve (the Hill Coefficient). From these curves the EC50 (drug concentration at which 50% of the maximal receptor activation was achieved), the Hill coefficient as well as the maximal response in % of the maximal stimulatory effect obtained with saturating concentrations of L-AP4 were calculated (see Fig. 1).
# A depression of the signal observed after addition of the EC20 concentration of L-AP4 was indicative of an inhibitory activity of the test compound.
# T1 sequence (Q14833 33-912): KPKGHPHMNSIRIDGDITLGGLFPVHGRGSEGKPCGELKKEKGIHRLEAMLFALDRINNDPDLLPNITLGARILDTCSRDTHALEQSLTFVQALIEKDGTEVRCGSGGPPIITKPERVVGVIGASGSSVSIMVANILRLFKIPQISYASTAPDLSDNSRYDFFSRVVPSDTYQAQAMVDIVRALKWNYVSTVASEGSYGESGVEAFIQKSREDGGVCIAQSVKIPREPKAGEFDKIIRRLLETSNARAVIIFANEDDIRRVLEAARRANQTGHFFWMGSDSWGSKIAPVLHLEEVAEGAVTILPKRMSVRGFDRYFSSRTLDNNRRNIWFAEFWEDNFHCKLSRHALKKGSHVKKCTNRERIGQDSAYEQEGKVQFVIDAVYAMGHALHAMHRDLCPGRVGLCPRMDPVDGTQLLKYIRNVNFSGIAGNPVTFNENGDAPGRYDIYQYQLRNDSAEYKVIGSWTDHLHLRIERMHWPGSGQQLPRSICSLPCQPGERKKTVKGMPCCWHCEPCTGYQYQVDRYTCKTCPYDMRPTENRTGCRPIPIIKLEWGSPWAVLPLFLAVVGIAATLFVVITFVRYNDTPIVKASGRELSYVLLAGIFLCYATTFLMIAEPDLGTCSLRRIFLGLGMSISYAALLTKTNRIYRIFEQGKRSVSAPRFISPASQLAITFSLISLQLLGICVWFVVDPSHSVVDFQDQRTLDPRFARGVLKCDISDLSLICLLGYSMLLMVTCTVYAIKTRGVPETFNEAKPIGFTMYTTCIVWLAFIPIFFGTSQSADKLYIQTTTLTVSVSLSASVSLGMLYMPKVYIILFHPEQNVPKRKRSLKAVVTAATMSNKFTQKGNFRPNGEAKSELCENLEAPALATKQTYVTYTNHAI
row,SMILES,EC50 [µM]
1,"CC1C(=O)N(c2c(F)cc(C#Cc3ccccc3)cc2F)c2nccn21 (single isomer, unassigned; enantiomer 2) [Example 4, 1-(2,6-difluoro-4-(phenylethynyl)phenyl)-3-methyl-1H-imidazo[1,2-a]imidazol-2(3H)-one (enantiomer 2)]",0.758
2,"O=C1N(c2c(F)cc(C#Cc3ccccc3)cc2F)c2ncc(-c3cncnc3)n2C12CC2 [Example 38, 3-[2,6-Difluoro-4-(2-phenylethynyl)phenyl]-6-(pyrimidin-5-yl)-2,3-dihydrospiro[[1,3]diazolo[1,2-a]imidazole-1,1′-cyclopropane]-2-one]",0.331
3,"Cn1ccc(-c2cnc3n2C2(CC2)C(=O)N3c2c(F)cc(-c3ccc(C(C)(F)F)cc3)cc2F)n1 [Example 25, 7′-[4-[4-(1,1-difluoroethyl)phenyl]-2,6-difluoro-phenyl]-3′-(1-methylpyrazol-3-yl)spiro[cyclopropane-1,5′-imidazo[1,2-a]imidazole]-6′-one]",0.1
4,"Cn1ccc(-c2cnc3n2C2(CC2)C(=O)N3c2c(F)cc(C#Cc3ccccc3)cc2F)n1 [Example 26, 1′-(2,6-difluoro-4-(phenylethynyl)phenyl)-5′-(1-methyl-1H-pyrazol-3-yl)spiro[cyclopropane-1,3′-imidazo[1,2-a]imidazol]-2′(1′H)-one]",0.104
5,"CC(F)(F)c1ccc(-c2cc(F)c(N3C(=O)C4(CC4)n4ccnc43)c(F)c2)cc1 [Example 6, 1′-(4′-(1,1-difluoroethyl)-3,5-difluoro-[1,1′-biphenyl]-4-yl)spiro[cyclopropane-1,3′-imidazo[1,2-a]imidazol]-2′(1′H)-one]",0.383
6,"Cn1cnc(-c2cnc3n2C2(CC2)C(=O)N3c2c(F)cc(C#Cc3ccccc3)cc2F)c1 [Example 14, 7′-[2,6-difluoro-4-(2-phenylethynyl)phenyl]-3′-(1-methylimidazol-4-yl)spiro[cyclopropane-1,5′-imidazo[1,2-a]imidazole]-6′-one]",0.12
7,"O=C1N(c2c(F)cc(-n3cc(C(F)(F)F)cn3)cc2F)c2ncc(-c3ccccn3)n2C12CC2 [Example 21, 7′-[2,6-difluoro-4-[4-(trifluoromethyl)pyrazol-1-yl]phenyl]-3′-(2-pyridyl)spiro[cyclopropane-1,5′-imidazo[1,2-a]imidazole]-6′-one]",0.596
8,"CC1(C)C(=O)N(c2c(F)cc(C#Cc3ccccc3)cc2F)c2ncc(I)n21 [Example 8, 1-(2,6-difluoro-4-(phenylethynyl)phenyl)-5-iodo-3,3-dimethyl-1H-imidazo[1,2-a]imidazol-2(3H)-one]",0.418
9,"O=C1N(c2c(F)cc(C#Cc3cccnc3)cc2F)c2ncc(-c3cccnc3)n2C12CC2 [Example 39, 1′-(2,6-difluoro-4-(pyridin-3-ylethynyl)phenyl)-5′-(pyridin-3-yl)spiro[cyclopropane-1,3′-imidazo[1,2-a]imidazol]-2′(1′H)-one]",0.566
10,"O=C1N(c2c(F)cc(-n3cc(C(F)(F)F)cn3)cc2F)c2ncc(-c3ccncn3)n2C12CC2 [Example 23, 7′-[2,6-difluoro-4-[4-(trifluoromethyl)pyrazol-1-yl]phenyl]-3′-pyrimidin-4-yl-spiro[cyclopropane-1,5′-imidazo[1,2-a]imidazole]-6′-one]",0.755
11,"CC1(C)C(=O)N(c2c(F)cc(C#Cc3ccccc3)cc2Cl)c2nccn21 [Example 2, 1-(2-chloro-6-fluoro-4-(phenylethynyl)phenyl)-3,3-dimethyl-1H-imidazo[1,2-a]imidazol-2(3H)-one]",0.359
12,"O=C(Nc1cc(F)c(N2C(=O)C3(CC3)n3c(-c4ccncn4)cnc32)c(F)c1)c1ccccn1 [Example 13, N-[3,5-difluoro-4-(6′-oxo-3′-pyrimidin-4-yl-spiro[cyclopropane-1,5′-imidazo[1,2-a]imidazole]-7′-yl)phenyl]pyridine-2-carboxamide]",0.077
13,"O=C1N(c2c(F)cc(C#Cc3cccnc3)cc2F)c2ncc(-c3ccncn3)n2C12CC2 [Example 16, 7′-[2,6-difluoro-4-[2-(3-pyridyl)ethynyl]phenyl]-3′-pyrimidin-4-yl-spiro[cyclopropane-1,5′-imidazo[1,2-a]imidazole]-6′-one]",0.237
14,"O=C(Nc1ccccn1)c1cc(F)c(N2C(=O)C3(CC3)n3c(-c4ccccn4)cnc32)c(F)c1 [Example 22, 3,5-difluoro-4-[6′-oxo-3′-(2-pyridyl)spiro[cyclopropane-1,5′-imidazo[1,2-a]imidazole]-7′-yl]-N-(2-pyridyl)benzamide]",0.61
15,"Cn1ccc(-c2cnc3n2C(C)(C)C(=O)N3c2c(F)cc(C#Cc3ccccc3)cc2Cl)n1 [Example 36, 1-(2-chloro-6-fluoro-4-(phenylethynyl)phenyl)-3,3-dimethyl-5-(1-methyl-1H-pyrazol-3-yl)-1H-imidazo[1,2-a]imidazol-2(3H)-one]",0.252

# More lines, now with the values ahead:
row,EC50 [µM],SMILES
1,0.322,"O=C1N(c2c(F)cc(C#Cc3ccccc3)cc2F)c2ncc(C3(O)COC3)n2C12CC2 [Example 50, 7′-[2,6-difluoro-4-(2-phenylethynyl)phenyl]-3′-(3-hydroxyoxetan-3-yl)spiro[cyclopropane-1,5′-imidazo[1,2-a]imidazole]-6′-one]"
2,0.824,"CC(O)c1cnc2n1C1(CC1)C(=O)N2c1c(F)cc(C#Cc2ccccc2)cc1F (stereo not shown) [Example 59, 7′-[2,6-difluoro-4-(2-phenylethynyl)phenyl]-3′-(1-hydroxyethyl)spiro[cyclopropane-1,5′-imidazo[1,2-a]imidazole]-6′-one]"
3,0.294,"O=C1N(c2c(F)cc(C#Cc3ccccc3)cc2F)c2ncc(CO)n2C12CC2 [Example 55, 7′-[2,6-difluoro-4-(2-phenylethynyl)phenyl]-3′-(hydroxymethyl)spiro[cyclopropane-1,5′-imidazo[1,2-a]imidazole]-6′-one]"
4,0.206,"CC(F)(F)c1ccc(-c2cc(F)c(N3C(=O)C4(CC4)n4c(-c5cc[nH]n5)cnc43)c(F)c2)cc1 [Example 40, 1′-(4′-(1,1-difluoroethyl)-3,5-difluoro-[1,1′-biphenyl]-4-yl)-5′-(1H-pyrazol-3-yl)spiro[cyclopropane-1,3′-imidazo[1,2-a]imidazol]-2′(1′H)-one]"
5,0.834,"O=C(Nc1cc(F)c(N2C(=O)C3(CC3)n3c(CO)cnc32)c(F)c1)c1ccccn1 [Example 56, N-[3,5-difluoro-4-[3′-(hydroxymethyl)-6′-oxo-spiro[cyclopropane-1,5′-imidazo[1,2-a]imidazole]-7′-yl]phenyl]pyridine-2-carboxamide]"
6,0.417,"O=C1N(c2c(F)cc(N3CCN(CC(F)(F)F)CC3)cc2F)c2ncc(-c3cc[nH]n3)n2C12CC2 [Example 42, 7′-[2,6-difluoro-4-[4-(2,2,2-trifluoroethyl)piperazin-1-yl]phenyl]-3′-(1H-pyrazol-3-yl)spiro[cyclopropane-1,5′-imidazo[1,2-a]imidazole]-6′-one]"
7,0.572,"CC(O)c1cnc2n1C1(CC1)C(=O)N2c1c(F)cc(NC(=O)c2ccccn2)cc1F (stereo not shown) [Example 57, N-[3,5-difluoro-4-[3′-(1-hydroxyethyl)-6′-oxo-spiro[cyclopropane-1,5′-imidazo[1,2-a]imidazole]-7′-yl]phenyl]pyridine-2-carboxamide]"
8,0.905,"CC(C)(C)c1cnn(-c2cc(F)c(N3C(=O)C4(CC4)n4c(C5(O)COC5)cnc43)c(F)c2)c1 [Example 52, 7′-[4-(4-tert-butylpyrazol-1-yl)-2,6-difluoro-phenyl]-3′-(3-hydroxyoxetan-3-yl)spiro[cyclopropane-1,5′-imidazo[1,2-a]imidazole]-6′-one]"
9,0.808,"O=C1CCN1c1cnc2n1C1(CC1)C(=O)N2c1c(F)cc(C#Cc2cccnc2)cc1F [Example 54, 7′-[2,6-difluoro-4-[2-(3-pyridyl)ethynyl]phenyl]-3′-(2-oxoazetidin-1-yl)spiro[cyclopropane-1,5′-imidazo[1,2-a]imidazole]-6′-one]"
10,0.69,"CS(=O)(=O)c1cnc2n1C1(CC1)C(=O)N2c1c(F)cc(C#Cc2ccccc2)cc1F [Example 53, 3′-[2,6-Difluoro-4-(2-phenylethynyl)phenyl]-6′-methanesulfonyl-2′,3′-dihydrospiro[cyclopropane-1,1′-imidazo[1,2-a][1,3]diazole]-2′-one]"
